{"source": "patent US20240239790A1", "about": "“7-Morpholino-1,6-Naphthyridin-5-yl Derivatives and Pharmaceutical Compositions Thereof Useful as DNA-PK Inhibitor” (adMare Therapeutics Society, priority 2021, published 2024)", "data": [{"molecular_target": "T1, DNA-PK phosphorylation at Serine 2056 (Homo sapiens, UniProt P78527)", "T1 construct": "FaDu cells were purchased from ATCC; host or cells: FaDu", "assay": "Cellular Assay for Inhibition of DNA-PK Phosphorylation at Serine 2056 in FaDu cells (sandwich ELISA, neocarzinostatin)", "type": "cell-based", "settings": "pSer2056 DNA-PK, Table 3", "description": "FaDu cells were purchased from ATCC and maintained in MEM alpha medium (Life Technologies, cat. no. 12561) supplemented with 10% fetal bovine serum, and 1% GlutaMAX at 37° C. supplemented with 5% CO2. 50,000 cells were seeded to each well of a 96-well cell culture plate in 50 μL of culture medium and incubated for 16-24 hours. Three-fold serially diluted compounds were prepared in DMSO. Culture media was used to prepare compound treatments to 0.3% DMSO (dimethyl sulphoxide) content. Compound treatments were added to the cells for 1 hour prior incubation, followed by the addition of neocarzinostatin in fresh culture medium to 1 μg/mL final concentration for an additional 2 hours incubation to induce DNA DSBs (double-strand breaks). DMSO controls were incubated with fresh culture medium alone for the additional two hours incubation. The cells were then lysed and frozen at −20° C. Cell lysates were thawed on wet ice and protein concentrations quantified by BCA Protein Assay (Thermo #23225). Lysis buffer was used to normalize lysates by protein content and all lysates were then investigated by sandwich ELISA by means of DNA-PK-specific antibodies (Abcam ab44815: total DNA-PK; ab124918: phosphoserine-2056 DNA-PK) in sandwich ELISA format on the MSD S600MM platform (MesoScale Discovery). % inhibition was calculated for all data points: =1−(DATA_PT−AVERAGE(DMSO controls))/(AVERAGE(NCS controls)−AVERAGE(DMSO controls)). Logarithm of the molar concentration of compound was plotted against percent inhibition to calculate IC50 values, with curve fit settings for data fit to log(inhibitor) vs. normalized response—Variable slope using curve fit software (GraphPad Prism).", "units": {"IC50": "nM"}, "values": [{"smiles": "CN1CCN(c2ccc(N[C@H]3CC[C@@H](Oc4nc(N5CCOCC5)cc5ncc(NS(C)(=O)=O)cc45)CC3)nc2)CC1", "note": "[LFA2001, N-[5-[4-[[5-(4-methylpiperazin-1-yl)-2-pyridyl]amino]cyclohexoxy]-7-morpholino-1,6-naphthyridin-3-yl]methanesulfonamide]", "IC50": "< 100"}, {"smiles": "CS(=O)(=O)Nc1cnc2cc(N3CCOCC3)nc(O[C@H]3CC[C@@H](Nc4cc5c(cn4)CNCC5)CC3)c2c1", "note": "[LFA2002, N-[7-morpholino-5-[4-(5,6,7,8-tetrahydro-2,7-naphthyridin-3-ylamino)cyclohexoxy]-1,6-naphthyridin-3-yl]methanesulfonamide]", "IC50": "100 to 1000"}, {"smiles": "CS(=O)(=O)Nc1cnc2cc(N3CCOCC3)nc(O[C@H]3CC[C@@H](Nc4ccc5c(n4)CCNC5)CC3)c2c1", "note": "[LFA2003, N-[7-morpholino-5-[4-(5,6,7,8-tetrahydro-1,6-naphthyridin-2-ylamino)cyclohexoxy]-1,6-naphthyridin-3-yl]methanesulfonamide]", "IC50": "100 to 1000"}, {"smiles": "CS(=O)(=O)Nc1cnc2cc(N3CCOCC3)nc(O[C@H]3CC[C@@H](Nc4ncc5c(n4)CNCC5)CC3)c2c1", "note": "[LFA2004, N-[7-morpholino-5-[4-(5,6,7,8-tetrahydropyrido[3,4-d]pyrimidin-2-ylamino)cyclohexoxy]-1,6-naphthyridin-3-yl]methanesulfonamide]", "IC50": "100 to 1000"}, {"smiles": "CS(=O)(=O)Nc1cnc2cc(N3CCOCC3)nc(O[C@H]3CC[C@@H](Nc4ncc5c(n4)CCNC5)CC3)c2c1", "note": "[LFA2005, N-[7-morpholino-5-[4-(5,6,7,8-tetrahydropyrido[4,3-d]pyrimidin-2-ylamino)cyclohexoxy]-1,6-naphthyridin-3-yl]methanesulfonamide]", "IC50": "100 to 1000"}, {"smiles": "CN1CCC(Oc2ccc(N[C@H]3CC[C@@H](Oc4nc(N5CCOCC5)cc5ncc(NS(C)(=O)=O)cc45)CC3)nc2)C1", "note": "(stereo partly shown) [LFA2006, N-[5-[4-[[5-(1-methylpyrrolidin-3-yl)oxy-2-pyridyl]amino]cyclohexoxy]-7-morpholino-1,6-naphthyridin-3-yl]methanesulfonamide]", "IC50": "< 100"}, {"smiles": "CN1CCc2nc(NC3CCC(Oc4nc(N5CCOCC5)cc5ncc(NS(C)(=O)=O)cc45)CC3)ncc2C1", "note": "(stereo not shown) [LFA2007, N-[5-[4-[(6-methyl-7,8-dihydro-5H-pyrido[4,3-d]pyrimidin-2-yl)amino]cyclohexoxy]-7-morpholino-1,6-naphthyridin-3-yl]methanesulfonamide]", "IC50": "< 100"}, {"smiles": "CN1CCc2nc(N[C@H]3CC[C@@H](Oc4nc(N5CCOCC5)cc5ncc(NS(C)(=O)=O)cc45)CC3)ccc2C1", "note": "[LFA2008, N-[5-[4-[(6-methyl-7,8-dihydro-5H-1,6-naphthyridin-2-yl)amino]cyclohexoxy]-7-morpholino-1,6-naphthyridin-3-yl]methanesulfonamide]", "IC50": "< 100"}, {"smiles": "Oc1cnc2cc(N3CCOCC3)nc(O[C@H]3CC[C@@H](Nc4ncc(N5CCN(CC(F)F)CC5)cn4)CC3)c2c1", "note": "[LFA2012]", "IC50": "< 100"}, {"smiles": "CS(=O)(=O)Nc1cnc2cc(N3CCOCC3)nc(O[C@H]3CC[C@@H](Nc4ncc(N5CCN(CCF)CC5)cn4)CC3)c2c1", "note": "[LFA2013]", "IC50": "< 100"}, {"smiles": "CS(=O)(=O)Nc1cnc2cc(N3CCOCC3)nc(O[C@H]3CC[C@@H](Nc4ncc(N5CCNCC5)cn4)CC3)c2c1", "note": "[LFA2014, N-[7-morpholino-5-[4-[(5-piperazin-1-ylpyrimidin-2-yl)amino]cyclohexoxy]-1,6-naphthyridin-3-yl]methanesulfonamide]", "IC50": "100 to 1000"}, {"smiles": "CS(=O)(=O)Nc1cnc2cc(N3CCOCC3)nc(O[C@H]3CC[C@@H](Nc4ncc(N5CC6CNCC6C5)cn4)CC3)c2c1", "note": "(stereo partly shown) [LFA2015, N-[5-[4-[[5-(2,3,3a,4,6,6a-hexahydro-1H-pyrrolo[3,4-c]pyrrol-5-yl)pyrimidin-2-yl]amino]cyclohexoxy]-7-morpholino-1,6-naphthyridin-3-yl]methanesulfonamide]", "IC50": "100 to 1000"}, {"smiles": "CS(=O)(=O)Nc1cnc2cc(N3CCOCC3)nc(O[C@H]3CC[C@@H](Nc4ncc(N5CC6CCC(C5)N6)cn4)CC3)c2c1", "note": "[LFA2016, N-[5-[4-[[5-(3,8-diazabicyclo[3.2.1]octan-3-yl)pyrimidin-2-yl]amino]cyclohexoxy]-7-morpholino-1,6-naphthyridin-3-yl]methanesulfonamide]", "IC50": "100 to 1000"}, {"smiles": "CS(=O)(=O)Nc1cnc2cc(N3CCOCC3)nc(O[C@H]3CC[C@@H](Nc4ncc(N5CCN(CC(F)(F)F)CC5)cn4)CC3)c2c1", "note": "[LFA2017, N-[7-morpholino-5-[4-[[5-[4-(2,2,2-trifluoroethyl)piperazin-1-yl]pyrimidin-2-yl]amino]cyclohexoxy]-1,6-naphthyridin-3-yl]methanesulfonamide]", "IC50": "< 100"}, {"smiles": "CS(=O)(=O)Nc1cnc2cc(N3CCOCC3)nc(O[C@H]3CC[C@@H](Nc4ncc(N5CCN(CC(F)F)CC5)cn4)CC3)c2c1", "note": "[LFA2018, N-[5-[4-[[5-[4-(2,2-difluoroethyl)piperazin-1-yl]pyrimidin-2-yl]amino]cyclohexoxy]-7-morpholino-1,6-naphthyridin-3-yl]methanesulfonamide]", "IC50": "< 100"}, {"smiles": "CS(=O)(=O)Nc1cnc2cc(N3CCOCC3)nc(O[C@H]3CC[C@@H](Nc4ncc(N5CCN(C6COC6)CC5)cn4)CC3)c2c1", "note": "[LFA2019, N-[7-morpholino-5-[4-[[5-[4-(oxetan-3-yl)piperazin-1-yl]pyrimidin-2-yl]amino]cyclohexoxy]-1,6-naphthyridin-3-yl]methanesulfonamide]", "IC50": "< 100"}, {"smiles": "CS(=O)(=O)Nc1cnc2cc(N3CCOCC3)nc(O[C@H]3CC[C@@H](Nc4ncc(CN5CCOCC5)cn4)CC3)c2c1", "note": "[LFA2020, N-[7-morpholino-5-[4-[[5-(morpholinomethyl)pyrimidin-2-yl]amino]cyclohexoxy]-1,6-naphthyridin-3-yl]methanesulfonamide]", "IC50": "< 100"}, {"smiles": "CS(=O)(=O)Nc1cnc2cc(N3CCOCC3)nc(O[C@H]3CC[C@@H](Nc4ncc(C5=CCNCC5)cn4)CC3)c2c1", "note": "[LFA2021, N-[7-morpholino-5-[4-[[5-(1,2,3,6-tetrahydropyridin-4-yl)pyrimidin-2-yl]amino]cyclohexoxy]-1,6-naphthyridin-3-yl]methanesulfonamide]", "IC50": "100 to 1000"}, {"smiles": "CS(=O)(=O)Nc1cnc2cc(N3CCOCC3)nc(O[C@H]3CC[C@@H](Nc4ncc(OCCN5CCNCC5)cn4)CC3)c2c1", "note": "[LFA2022, N-[7-morpholino-5-[4-[[5-(2-piperazin-1-ylethoxy)pyrimidin-2-yl]amino]cyclohexoxy]-1,6-naphthyridin-3-yl]methanesulfonamide]", "IC50": "< 100"}, {"smiles": "CS(=O)(=O)Nc1cnc2cc(N3CCOCC3)nc(O[C@H]3CC[C@@H](Nc4ncc(OCCN5CCOCC5)cn4)CC3)c2c1", "note": "[LFA2023, N-[7-morpholino-5-[4-[[5-(2-morpholinoethoxy)pyrimidin-2-yl]amino]cyclohexoxy]-1,6-naphthyridin-3-yl]methanesulfonamide]", "IC50": "< 100"}, {"smiles": "CN(C)CCOc1cnc(N[C@H]2CC[C@@H](Oc3nc(N4CCOCC4)cc4ncc(NS(C)(=O)=O)cc34)CC2)nc1", "note": "[LFA2024, N-[5-[4-[[5-[2-(dimethylamino)ethoxy]pyrimidin-2-yl]amino]cyclohexoxy]-7-morpholino-1,6-naphthyridin-3-yl]methanesulfonamide]", "IC50": "100 to 1000"}, {"smiles": "CN1CCC(Oc2cnc(N[C@H]3CC[C@@H](Oc4nc(N5CCOCC5)cc5ncc(NS(C)(=O)=O)cc45)CC3)nc2)C1", "note": "(stereo partly shown) [LFA2025, N-[5-[4-[[5-(1-methylpyrrolidin-3-yl)oxypyrimidin-2-yl]amino]cyclohexoxy]-7-morpholino-1,6-naphthyridin-3-yl]methanesulfonamide]", "IC50": "100 to 1000"}]}]}
